Test results reported in US20110294992A1, “METAL RESPONSIVE MRI-AGENTS” (The Regents of the University of California, priority 2010, published 2011).
“And” between values parts separate entries of the source, which are not always exact repeats. Equal entries are not always repeated.

Tests used:
[1] = Metal ion selectivity of relaxivity response (competing metal ions alone or with added copper); type: physicochemical; conditions: relaxivity at 60 MHz, 20 mM HEPES, pH 7, 37° C.
Procedure: FIG. 6. Relaxivity responses of CG2 to various metal ions. White bars represent the addition of an excess of the appropriate metal ion (10 mM for Na^+, 2 mM for K^+, Mg^2+, and Ca^2+, and 0.2 mM for Fe^2+, Fe^3+, Cu^2+) to a 0.2 mM solution of CG2. Response to Zn^2+ was measured both at 0.2 mM Zn^2+ (Zn^2+1×) and 2 mM Zn^2+ (Zn^2+10×). Black bars represent the subsequent addition of 0.2 mM Cu^+ to the CG2 solution. Relaxivity measurements were acquired at 37° C. in 20 mM HEPES buffer, pH 7, at a proton Larmor frequency of 60 MHz.
The potential ability of this new family of CG sensors to sense bioavailable copper pools in either or both its predominant oxidation states represents a significant advance over the initial CG1 compound.

[2] = Electrochemical Cu2+/Cu+ reduction potentials of copper-bound CG complexes; type: physicochemical; conditions: PBS buffer, pH 7.4
Procedure: CG6 is a unique member of the CG family that is equally responsive to both Cu^+ and Cu^2+. Addition of either Cu^+ or Cu^2+ to CG6 triggers a maximum 73% relaxivity turn-on from r1=2.2 mM^−1s^−1 to r1=3.8 mM^−1s^−1. […] On the other hand, copper-bound CG6, which responds to both Cu^+ and Cu^2+, has the least positive Cu^2+/Cu^+ reduction potential at +0.13 V.

[3] = Kinetic stability to metal ion exchange monitored by LC/MS; type: physicochemical; conditions: 1 equiv of Cu^2+
[4] = Longitudinal relaxivity (r1) turn-on response to Cu+ from T1 measurements at 60 MHz; type: physicochemical; conditions: 1 equiv Cu^+, 20 mM HEPES buffer, pH 7, 37° C.
Procedure: (§1) The longitudinal relaxivity values for the CG contrast agents in the absence or presence of copper ions were determined using T1 measurements at 60 MHz. Studies were performed at 37° C. in 20 mM HEPES buffered to pH 7, and solutions of the purified CG sensors for relaxivity experiments contained 0.2 mM Gd^3+ as determined by ICP-OES. Spectroscopic data are collected in Table 1.
Upon addition of up to 1 equiv of copper ions, the relaxivity values of the CG contrast agents increase, establishing the ability of these probes to sense copper using the MR modality (Table 1, FIG. 3). CG2, CG3, CG4, and CG5 respond to Cu^+ with relaxivity increases ranging from 92% to 360%. […] These values represent the largest relaxivity enhancements observed to date for metal-activated MR contrast agents and a ca. 9-fold improvement in copper ion response compared to CG1 (41% increase). The observed differences in turn-on Cu^+ responses for benzyl-substituted CG4 (290% increase) versus methyl-substituted CG5 (92% increase) with the same pyridyl-thioether receptor show the marked effects that small peripheral substitutions can have on relaxivity properties.

[5] = Longitudinal relaxivity (r1) from T1 measurements at 60 MHz, absence of copper; type: physicochemical; conditions: no copper; 60 MHz, 20 mM HEPES buffer, pH 7, 37° C., 0.2 mM Gd^3+
Procedure: as §1
Nuclear magnetic relaxation dispersion (NMRD) experiments provide supporting evidence for this proposal (vide infra).

[6] = T1-weighted phantom magnetic resonance imaging at 1.5 T; conditions: 100 μM sensor with Cu^+ at 0, 10, 25, 50, 75, and 100 μM
Procedure: FIG. 10. A) T1-weighted phantom images of 100 μM CG2-6 in 20 mM HEPES pH 7 with and without 1 equiv Cu^n+. B) Phantom images of 100 μM CG2-6 with 0, 10, 25, 50, 75, and 100 μM [Cu(NCCH3)4]PF6. Images were acquired at 25° C. at 1.5 T (˜64 MHz proton Larmor frequency).
With spectroscopic data showing the turn-on relaxivity responses, binding properties, metal ion selectivities, and copper-induced changes in q values for this new series of CG contrast agents in hand, we next sought to test the ability of these sensors to detect changes in aqueous Cu^+ and/or Cu^2+ levels using MRI. […] In this context, chelatable copper pools have been identified in the mitochondrial matrix^22 and in the Golgi apparatus.^23 Moreover, the cerebrospinal fluid (CSF) contains micromolar levels of copper ions, most of which is not bound to ceruloplasmin due to the low concentrations of this protein in the CSF,^24,25 which may result in facile exchange between different copper binding ligands.^26

[7] = Relaxivity response to 1 equiv Cu+ in the presence of biologically relevant anions; type: physicochemical; conditions: for increase in r1 in response to Cu^+ / turn-on response to Cu^+: pH 7
Procedure: FIG. 7. Relaxivity responses of CG2 to 1 equiv Cu^+ in the presence of biologically relevant anions. White bars represent CG2 relaxivities without Cu^+ in the presence of various anions. Black bars represent CG2 relaxivities with Cu^+ in the presence of different anions. Percentages in the black bars are the % increases r1. Relaxivity measurements with HEPES, citrate (0.13 mM), lactate (2.3 mM), and HCO3^− (10 mM, 25 mM), were acquired at 37° C. in 20 mM HEPES buffer, pH 7, at a proton Larmor frequency of 60 MHz. Relaxivity measurements with PBS were acquired under similar conditions using phosphate buffered saline, pH 7.4.
We also tested the copper responses of CG2-6 in the presence of physiologically relevant concentrations of common biological anions (FIG. 7). […] Carboxylate-type anions, however, can affect relaxivity responses of Cu^+-bound CG2. Addition of citrate (0.13 mM) and lactate (2.3 mM) to CG2 results in turn-on responses to Cu^+ of 220% and 71% respectively. Carbonate concentrations also affect the response of CG2; the effect of carbonate was tested at 10 mM NaHCO3 (intracellular)^104 and 25 mM NaHCO3 (extracellular)^108 and gave increases in r1 in response to Cu^+ of 190% and 140% respectively. Although the relaxivity increases observed in the presence of anions are still well within a range detectable by MRI,^109 current work is geared toward developing CG-sensors with more carboxylate functionalities incorporated into the ligand framework to minimize anion sensitivity.^55,110

With CCSCCN(CCSCC)Cc1cccc(CN2CCN(CC(=O)[O-])CCN(CC(=O)[O-])CCN(CC(=O)[O-])CC2)n1.[Gd+3] [CG2] as the compound, how does the “redox specificity of relaxivity response (Cu^+ vs Cu^2+)” value [1] read?
The value was “give turn-on relaxivity increases with Cu^+ but do not respond to Cu^2+”.

What about the “Cu^2+/+ E1/2” value [2] of the same compound?
The value was 0.46 V vs. SHE.

And the “metal ion exchange (kinetic stability)” value ([3]; 37° C., after 4 hours)?
Its value is “No metal ion exchange was observed”.

What about the “metal ion exchange (kinetic stability)” value ([3]; room temperature, after 7 days) of the same compound?
Its value is “No metal ion exchange was observed”.

And the “r1 (1 equiv Cu)” value [4]?
Its value is 6.9 mM^−1s^−1 and 6.9^b mM^−1s^−1.

And the “r1 (no Cu)” value [5]?
Its value is 1.5 mM⁻¹ s⁻¹.

What about the “visualization of copper level differences in phantom images” value [6] of the same compound?
The value was “can readily visualize differences in copper levels in a biologically relevant μM range”.

What about the “increase in r1 in response to Cu^+” value ([7]; 10 mM NaHCO3 (intracellular) in 20 mM HEPES) of the same compound?
The value was 190%.

What about the “increase in r1 in response to Cu^+” value ([7]; 25 mM NaHCO3 (extracellular) in 20 mM HEPES) of the same compound?
Its value is 140%.

What about the “turn-on response to Cu^+” value ([7]; citrate (0.13 mM) in 20 mM HEPES, 1 equiv Cu^+) of the same compound?
The value was 220%.

And the “turn-on response to Cu^+” value ([7]; lactate (2.3 mM) in 20 mM HEPES, 1 equiv Cu^+)?
The value was 71%.

What about the “increase in relaxivity in response to Cu^+” value ([7]; phosphate buffered saline (PBS, 10 mM phosphate), pH 7.4, 1 equiv Cu^+) of the same compound?
The value was 350%.
